Test results from PMC2959089, “The intriguing Cyclophilin A-HIV-1 Vpr interaction: prolyl cis/trans isomerisation catalysis and specific binding” (BMC Structural Biology, 2010).
No end group written: not given here.

How the values were obtained:
CypA [1] = biological target: T1, CypA (Homo sapiens, UniProt P62937); assay: biochemical; format: binding; settings: for kon: pH 7.4, read-out: ka1 (association rate constant), two state reaction model; for koff: pH 7.4, read-out: kd1 (dissociation rate constant), two state reaction model
T1 construct: made in house; host or cells: E. coli BL21(DE3)
T1 sequence (P62937 whole entry): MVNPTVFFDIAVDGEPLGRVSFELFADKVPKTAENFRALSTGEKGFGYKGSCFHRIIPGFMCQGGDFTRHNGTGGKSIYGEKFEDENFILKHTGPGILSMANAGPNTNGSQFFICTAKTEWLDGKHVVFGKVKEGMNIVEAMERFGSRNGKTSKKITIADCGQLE
Procedure: The two-state binding model, also called the conformational change model, is based on a 1:1 binding of an analyte to the immobilized ligand followed by a conformational change in the complex. This model should be regarded as indicative, rather than as direct evidence, for a conformational change upon binding. […] From the two-state binding model the association rate (ka1), dissociation rate (kd1), forward rate (ka2) and backward rate (kd2) constants were calculated, and subsequently the magnitude of the dissociation constants (KD) could be calculated ([…] (Table 1).
(§1) SPR measurements were performed at 25°C on a Biacore T100 instrument (Biacore AB, Uppsala, Sweden) equipped with a CM5 research-grade sensor chip. CypA was immobilized in FC 2 and FC 4 to 180 and 918 RU (response units) respectively, using standard amine-coupling chemistry in two flow cells. FC 1 and FC 3 were treated according to FC 2 and FC 4 except for CypA immobilisation and functioned as reference cells. The synthetic Vpr peptides sVpr^1-20, sVpr^21-40, sVpr^25-40, sVpr^30-40, sVpr^32-38 and sVpr^33-37 were dissolved at four concentrations ranging from 50 to 400 μM in the running buffer (HBS-P buffer pH 7.4). […] The samples were injected over the flow cells at a flow rate of 30 μl/min. Data were collected at 2.5 Hz during the 60 s association and 120 s dissociation phase, and were automatically corrected for bulk buffer effects and unspecific binding of Vpr peptides to the chip matrix.
Affinity, association and dissociation rate constants were obtained from sensograms by the Biacore T100 evaluation software version 2.0.1 in accordance with the global curve fit model. Sensorgram data for the four different concentrations were fitted to several binding models including 1:1 (Langmuir) binding model (A+B ↔ AB), two-state reaction (conformational change) model (A+B ↔ AB ↔ AB*) and heterogeneous ligand model (interaction one: A+B1 ↔ AB1; interaction two: A+B2 ↔ AB2). Kinetic constants were calculated for the best fitted model.

[2] = Solubility of sVpr peptides in aqueous buffer (observation during SPR sample preparation); format: physicochemical; settings: for Solubility in SPR running buffer: HBS-P buffer pH 7.4, dissolved at 25-200 μM instead of 50-400 μM
Procedure: as §1

CypA [3] = biological target: T1, CypA; assay: 2D 1H NOESY/ROESY NMR exchange spectroscopy of CypA prolyl cis/trans isomerase activity on sVpr peptides and its inhibition by cyclosporine A; format: biochemical; settings: excess cyclosporine A (0.1 mg in 5 μl DMSO-d6) added after CypA
Procedure: After acquisition of 1 D ^1H and 2D ^1H TOCSY, NOESY and ROESY NMR spectra of pure sVpr^1-20 and sVpr^21-40, 50-100 μl 0.11 mM CypA dissolved in aqueous Tris buffer at pH 7 was added to the individual peptide solutions, followed by acquisition of identical series of NMR spectra (1 D ^1H and 2D ^1H TOCSY, NOESY and ROESY) to those of the pure peptides. Exchange peaks occurring in the spectra after addition of CypA were identified by supposition of analogous NOESY and/or ROESY spectra prior to and after addition of CypA using Bruker Topspin 1.3 software.
The catalytic prolyl cis/trans isomerase interactions of CypA with sVpr^1-20 and sVpr^21-40 was inhibited by addition of excessive amounts of cyclosporine A dissolved in 5 μl deuterated dimethylsulfoxide (DMSO-d6).

HIV = settings: specific inhibitors of the prolyl cis/trans isomerase activity of CypA; cited from earlier work
From the text: The interaction of HIV-1 Vpr with CypA is known to occur in vitro and in vivo [9-11]. […] Nonetheless, spe ...

Molecule	kon (CypA [1]) [M⁻¹ s⁻¹]	koff (CypA [1]) [s⁻¹]	also measured
CC[C@H](C)[C@H](NC(=O)[C@H](CCCNC(=N)N)NC(=O)[C@@H]1CCCN1C(=O)[C@H](Cc1ccccc1)NC(=O)[C@H](Cc1c[nH]cn1)NC(=O)[C@H](CCCNC(=N)N)NC(=O)[C@@H](NC(=O)[C@H](C)NC(=O)[C@H](CCC(=O)O)NC(=O)[C@H](CO)NC(=O)[C@H](CCCCN)NC(=O)[C@H](CC(C)C)NC(=O)[C@H](CCC(=O)O)NC(=O)[C@H](CCC(=O)O)NC(=O)[C@H](CC(C)C)NC(=O)[C@H](CC(C)C)NC(=O)[C@H](CCC(=O)O)NC(=O)[C@H](CC(C)C)NC(=O)[C@@H](NC(=O)[C@@H](NC(=O)[C@H](Cc1c[nH]c2ccccc12)NC(=O)[C@H](CCC(=O)O)NC(=O)[C@H](CC(N)=O)NC(=O)[C@H](Cc1ccc(O)cc1)NC(=O)[C@H](CC(N)=O)NC(=O)[C@H](CCC(=O)O)NC(=O)[C@H](CCCNC(=N)N)NC(=O)[C@H](CCC(N)=O)NC(=O)[C@H](CC(N)=O)NC(=O)CNC(=O)[C@H](CCC(N)=O)NC(=O)[C@H](CC(=O)O)NC(=O)[C@H](CCC(=O)O)NC(=O)[C@H](CC(N)=O)NC(=O)[C@H](C)NC(=O)[C@H](CCC(N)=O)NC(=O)[C@H](CCC(=O)O)NC(=O)[C@@H](N)CCSC)[C@@H](C)O)[C@@H](C)O)C(C)C)C(=O)N[C@@H](Cc1c[nH]c2ccccc12)C(=O)N[C@@H](CC(C)C)C(=O)N[C@@H](Cc1c[nH]cn1)C(=O)O [sVpr^1-40 P5,10,14 N]	46	0.56	Solubility in SPR running buffer [2]: restricted solubility; Solubility in aqueous buffer solution ([2]; aqueous buffer solution at pH 7, offered as possible reason for unreliable KD): relatively poor solubility
CC[C@H](C)[C@H](NC(=O)[C@H](CCCNC(=N)N)NC(=O)[C@@H]1CCCN1C(=O)[C@H](Cc1ccccc1)NC(=O)[C@H](Cc1c[nH]cn1)NC(=O)[C@H](CCCNC(=N)N)NC(=O)[C@@H](NC(=O)[C@H](C)NC(=O)[C@H](CCC(=O)O)NC(=O)[C@H](CO)NC(=O)[C@H](CCCCN)NC(=O)[C@H](CC(C)C)NC(=O)[C@H](CCC(=O)O)NC(=O)[C@H](CCC(=O)O)NC(=O)[C@H](CC(C)C)NC(=O)[C@H](CC(C)C)NC(=O)[C@H](CCC(=O)O)NC(=O)[C@H](CC(C)C)NC(=O)[C@@H](NC(=O)[C@@H](NC(=O)[C@H](Cc1c[nH]c2ccccc12)NC(=O)[C@H](CCC(=O)O)NC(=O)[C@H](CC(N)=O)NC(=O)[C@H](Cc1ccc(O)cc1)NC(=O)[C@@H]1CCCN1C(=O)[C@H](CCC(=O)O)NC(=O)[C@H](CCCNC(=N)N)NC(=O)[C@H](CCC(N)=O)NC(=O)[C@@H]1CCCN1C(=O)CNC(=O)[C@H](CCC(N)=O)NC(=O)[C@H](CC(=O)O)NC(=O)[C@H](CCC(=O)O)NC(=O)[C@@H]1CCCN1C(=O)[C@H](C)NC(=O)[C@H](CCC(N)=O)NC(=O)[C@H](CCC(=O)O)NC(=O)[C@@H](N)CCSC)[C@@H](C)O)[C@@H](C)O)C(C)C)C(=O)N[C@@H](Cc1c[nH]c2ccccc12)C(=O)N[C@@H](CC(C)C)C(=O)N[C@@H](Cc1c[nH]cn1)C(=O)O [sVpr^1-40]	752	0.37	Kd (CypA [1]): 284 µM; Solubility in SPR running buffer [2]: restricted solubility
CC[C@H](C)[C@H](NC(=O)[C@H](CCCNC(=N)N)NC(=O)[C@@H]1CCCN1C(=O)[C@H](Cc1ccccc1)NC(=O)[C@H](Cc1c[nH]cn1)NC(=O)[C@H](CCCNC(=N)N)NC(=O)[C@@H](NC(=O)[C@H](C)NC(=O)[C@H](CCC(=O)O)NC(=O)[C@H](CO)NC(=O)[C@H](CCCCN)NC(=O)[C@H](CC(C)C)NC(=O)[C@H](CCC(=O)O)NC(=O)[C@H](CCC(=O)O)NC(=O)[C@H](CC(C)C)NC(=O)[C@H](CC(C)C)NC(=O)[C@@H](N)CCC(=O)O)C(C)C)C(=O)N[C@@H](Cc1c[nH]c2ccccc12)C(=O)N[C@@H](CC(C)C)C(=O)N[C@@H](Cc1c[nH]cn1)C(=O)O [sVpr^21-40]	466	0.164	
CC[C@H](C)[C@H](NC(=O)[C@H](CCCNC(=N)N)NC(=O)[C@@H]1CCCN1C(=O)[C@H](Cc1ccccc1)NC(=O)[C@H](Cc1c[nH]cn1)NC(=O)[C@H](CCCNC(=N)N)NC(=O)[C@@H](NC(=O)[C@H](C)NC(=O)[C@H](CCC(=O)O)NC(=O)[C@H](CO)NC(=O)[C@H](CCCCN)NC(=O)[C@H](CC(C)C)NC(=O)[C@@H](N)CCC(=O)O)C(C)C)C(=O)N[C@@H](Cc1c[nH]c2ccccc12)C(=O)N[C@@H](CC(C)C)C(=O)N[C@@H](Cc1c[nH]cn1)C(=O)O [sVpr^25-40]	2000	0.942	
CC[C@H](C)[C@H](NC(=O)[C@H](CCCNC(=N)N)NC(=O)[C@@H]1CCCN1C(=O)[C@H](Cc1ccccc1)NC(=O)[C@H](Cc1c[nH]cn1)NC(=O)[C@H](CCCNC(=N)N)NC(=O)[C@@H](NC(=O)[C@H](C)N)C(C)C)C(=O)N[C@@H](Cc1c[nH]c2ccccc12)C(=O)N[C@@H](CC(C)C)C(=O)N[C@@H](Cc1c[nH]cn1)C(=O)O [sVpr^30-40]	2470	0.527	
HFPRI [sVpr^33-37]	120	0.66	
RHFPRIW [sVpr^32-38]	924	0.67	
cyclosporine A			Inhibition of CypA prolyl cis/trans isomerase activity (exchange crosspeaks after addition of inhibitor) (CypA [3]; substrate sVpr1-20): disappearance of the prolyl cis/trans exchange crosspeaks; Inhibition of CypA prolyl cis/trans isomerase activity (exchange crosspeaks after addition of inhibitor) (CypA [3]; substrate sVpr21-40): prolyl cis/trans exchange crosspeaks disappeared; Inhibition of HIV replication (HIV): inhibit HIV replication
